Measured values: US20010006656A1, “METHODS AND COMPOSITIONS FOR INHIBITING INFLAMMATION ASSOCIATED WITH PULMONARY DISEASE” (UNIVERSITY OF WASHINGTON, priority 1999, published 2001)

Assays:
[1] = system: Jurkat cell adherence to FN; experiment: Jurkat cell adherence to fibronectin (calcein-AM fluorescence); assay type: cell-based; conditions: for reversal of the inhibitory effect of lovastatin on PMA-stimulated Jurkat cell adhesion: co-incubated with lovastatin 2.5 days
Experimental: (§1) Briefly, Jurkat and U937 cells (American Type Culture Collection; Manassas Va.) were maintained in Earles Modified Eagles Medium (EMEM; M. A. Bioproducts, Walkersville, Md.) supplemented with 10% fetal bovine serum (FBS; Hyclone Laboratories Inc.; Logan Utah), 5 mM glutamine (Life Technologies Inc.; Gaithersburg Md.), 5 mM sodium pyruvate (Life Technologies), and […] (Life Technologies). Lovastatin (Calbiochem; San Diego Calif.) was converted to open acid form before use. […] The solution was heated to 50° C. for two hours. To this heated solution, 4.5 ml of an aqueous solution containing 81 mM NaH2PO4 and […] was added. The solution was heated to 40° C. for 30 min and the pH was adjusted to 7.3 with concentrated HCl. The final concentration was determined by UV spectroscopy (ε231 =21,490 M^−1cm^−1). The stock solution was frozen in small aliquots.
Cell adhesion of Jurkat cells and U937 cells to fibronectin (FN) or laminin (LN), respectively, was measured. Human FN (1.25 μg/ml)(Collaborative Research Inc.; Bedford Mass.) or human LN (100 μg/ml)(Life Technologies) was coated onto 96-well PRO-BIND assay plate (Falcon; Becton Dickinson; Lincoln Park N.J.) by incubating overnight at 4° C. The plate was then blocked with 3% bovine serum albumin (BSA) in phosphate buffered saline (PBS) at room temperature for one hour. Immediately before use, plates were washed three times with PBS.
(§2) After centrifugation for seven min at 300 xg, cells were resuspended in 1 ml phenol red-free medium and then labeled by incubation with 5 μl of the fluorescent dye calcein-AM (1 mg/ml in DMSO; Molecular Probes; Eugene Oreg.) for 30 min at room temperature in the dark. The cells were then washed twice with phenol red-free medium. After incubation with phorbol 12-myristate 13--acetate (PMA) (100 ng/ml) (Sigma; St. Louis Mo.), which is an activator of protein kinase C (PKC), or MAb 8A2 (2 μg/ml) for 30 min in control medium at room temperature, cells (˜1×10^5/well) were added to triplicate wells. After incubation for 30 min at 37° C., the total cells in the well were analyzed using a fluorescence plate reader (PerSeptive Biosystem; Framingham Mass.). Unbound cells were removed by washing the plate three times with phenol red-free medium, and the plate was then reanalyzed to determine fluorescence of bound cells. After subtraction of background, the percent adherence was calculated as the emission at 530 nm of bound cells divided by the […] of total cells.

ERK1 = experiment: Immunoblot for phosphorylated ERK1 in PMA-treated Jurkat cells; assay type: cell-based
RhoA = RhoA immunoblot (electrophoretic mobility as measure of isoprenylation) in Jurkat cells; assay type: cell-based
Experimental: Cell lysates were subjected to immunoblot analysis to assess RhoA electrophcoretic mobility as a measurement of isoprenylation. For RhoA blots, membranes were sequentially incubated with rabbit anti-RhoA antibody (Santa Cruz Biotechnology, Inc.) in TBST at room temperature for three hours, washed with TBST five times, incubated with goat anti-rabbit IgG (H+L) conjugated with horse radish peroxidase (HRP) (Bio-Rad Laboratories; Hercules Calif.) for one hour, and then washed with TBST five times. RhoA bands were visualized on x-ray film by incubation of membrane with chemiluminescence luminol reagent (Santa Cruz Biotechnology) at room temperature for one minute.

[2] = system: U937 cell adherence to LN; experiment: U937 cell adherence to laminin (calcein-AM fluorescence); assay type: cell-based
Experimental: as §1
Cell adhesion of Jurkat cells and U937 cells to fibronectin (FN) or laminin (LN), respectively, was measured. Human FN (1.25 μg/ml)(Collaborative Research Inc.; Bedford Mass.) or human LN (100 μg/ml)(Life Technologies) was coated onto 96-well PRO-BIND assay plate (Falcon; Becton Dickinson; Lincoln Park N.J.) by incubating overnight at 4° C. […]
as §2, with “The cells were then washed twice with phenol red-free medium. After incubation with phorbol 12-myristate 13--acetate (PMA) (100 ng/ml) (Sigma; St. Louis Mo.), which is an activator of protein kinase C (PKC), or MAb 8A2 (2 μg/ml) for 30 min in control medium at room temperature, cells (˜1×10^5/well) were added to triplicate wells.” left out

[3] = system: neutrophil (PMN) and mononuclear cell migration into lung; experiment: LPS-induced pulmonary inflammation in mice, cell counts in lung lavage fluid; assay type: in vivo
Experimental: (§3) Pulmonary inflammation was induced in mice using a technique similar to that reported by others (Szarka et al., J. Immunol. Methods 202:49-57 (1997)). Briefly, mice were anesthetized with halothane, then 2.5 μl/g was placed into their nares where it was rapidly taken into the trachea and deep into the lungs. […] Compounds were administered in a given amount per g of mouse body weight. In a second set of experiments, PMA (50 ng/μl final concentration; 5 mg/ml stock solution in dimethyl sulfoxide) was used in place of LPS. Mice were allowed to recover from anesthesia and returned to their cages with free access to food and water.
At either 24 (LPS and PMA) or 48 (LPS) hours, mice were returned to the laboratory and killed, their chest rapidly opened, then both lungs were lavaged with 0.5 ml of normal saline followed by a second lavage of another 0.5 ml of normal saline that was lavaged in and out four times. The lavage fluid was combined, total cell counts determined using a hemocytometer, cytospin preparations were then made, the cells stained using the commercial kit (DiffQuik; Baxter Healthcare Corp.; Miami Fla.), and differential cells counts completed. The total number of mononuclear cells and neutrophils in the lavage fluid was determined by counting 100 cells. The number of neutrophils or macrophages was determined by multiplying the percentages by the total cell count. Differences between groups were tested using the computer program Stat View (Abacus Concepts; Berkeley Calif.) by analysis of variances and post hoc testing using Fisher's protected least square differences. Differences were assumed significant for p<0.05. The lavage fluid remaining after cytospin and cell counts was subjected to centrifugation, and the supernatant collected and frozen at −20° C. for later cytokine analysis. […] Thus, lavage fluid was derived from regions where LPS was deposited as well as those regions receiving no challenge.
The LPS was given at the same time as the last dose of lovastatin by i.n. instillation as described above. […] Mice were returned to their cages with free access to food and water for 24 hours, then returned to the laboratory and killed. Lavage was performed and cell counts completed as described above.

[4] = system: neutrophil (PMN) and mononuclear cell migration into lung; experiment: PMA-induced pulmonary inflammation in mice, cell counts in lung lavage fluid; assay type: in vivo; conditions: i.n. lovastatin 7.0 μg/g with i.n. PMA; 24 hours
Experimental: as §3
At either 24 (LPS and PMA) or 48 (LPS) hours, mice were returned to the laboratory and killed, their chest rapidly opened, then both lungs were lavaged with 0.5 ml of normal saline followed by a second lavage of another 0.5 ml of normal saline that was lavaged in and out four times. The lavage fluid was combined, total cell counts determined using a hemocytometer, cytospin preparations were then made, the cells stained using the commercial kit (DiffQuik; Baxter Healthcare Corp.; Miami Fla.), and differential cells counts completed. The total number of mononuclear cells and neutrophils in the lavage fluid was determined by counting 100 cells. The number of neutrophils or macrophages was determined by multiplying the percentages by the total cell count. […]

KC = KC chemokine ELISA in lung lavage fluid of LPS-challenged mice; assay type: in vivo, murine
Experimental: (§4) Lavage fluids were used to measure cytokine production. The murine chemoattractant KC is a member of the CXC chemokine family of inflammatory cytokines and was measured by ELISA (R&D Systems; Minneapolis Minn.). The pro-inflammatory cytokine murine TNFα was also measured by ELISA (R&D Systems). The protocol for both assays was similar. Briefly, assay diluent was mixed with sample, which was the lavage fluid obtained as described in Example IV. The diluent was added to the appropriate capture plate and incubated for two hours. Plates were washed, incubated with conjugated anti-KC or anti-TNFα antibody for two hours, washed again, and then incubated with substrate for 30 min. A stop solution was then added, and the optical density determined by plate reader.

TNFα = TNFα ELISA in lung lavage fluid of LPS-challenged mice; assay type: in vivo, murine
Experimental: as §4

[5] = Mouse hind limb ischemia and reperfusion, leg diameter; assay type: in vivo; conditions: 7 μg/g i.p. at beginning of 30 min ischemia; 24 hours; t-test
Experimental: Briefly, mice were anesthetized with halothane. A tourniquet was then placed on one hind limb to completely occlude blood flow and kept in place for 30 min. Body temperature was maintained at 37° C. with a heating blanket during the period of ischemia. Perfusion of the hind limb was re-established by removal of the tourniquet, and leg diameter was measured hourly for the next 6 hours and again at 24 hours.

## COc1cccc(-c2cc(=O)c3ccccc3o2)c1N [PD-98059]
[1]; 10 μM, 30 min pre-incubation before PMA
  PMA-stimulated Jurkat cell adherence: did not inhibit
ERK1; Jurkat cells pre-incubated 30 min with MEK-1 inhibitor before PMA
  ERK1 phosphorylation: completely blocked

## CC(C)=CCC/C(C)=C/CC/C(C)=C/CC/C(C)=C/CO [GGOH, all trans-geranylgeraniol]
[1]; 10 μM lovastatin (FIG. 3B)
  concentration required to rescue Jurkat cell from the inhibitory effect of lovastatin: 2.5 µM
[1]
  reversal of the inhibitory effect of lovastatin on PMA-stimulated Jurkat cell adhesion: reversed
RhoA; GGOH 5 μM with lovastatin
  RhoA migration on addition with lovastatin: more rapid migration of RhoA as seen in untreated cells

## CC(C)=CCC/C(C)=C/CC/C(C)=C/CO [FOH, trans, trans-farnesol]
[1]
  reversal of the inhibitory effect of lovastatin on PMA-stimulated Jurkat cell adhesion: not

## CC[C@H](C)C(=O)O[C@H]1C[C@@H](C)C=C2C=C[C@H](C)[C@H](CC[C@@H]3C[C@@H](O)CC(=O)O3)[C@H]21 [lovastatin]
[1]; 8A2 2 μg/ml, 2.5 days pretreatment
  effect on mAb 8A2-stimulated Jurkat cell adherence to FN: no significant effect
[1]; concentration greater than 5 μM, 2.5 days pretreatment
  inhibition of PMA-stimulated Jurkat cell adherence to FN: nearly completely inhibited
[2]; lovastatin pretreatment, 8A2 2 μg/ml
  inhibition of mAb 8A2-stimulated adherence of U937 cells to LN: not
[2]; lovastatin pretreatment, PMA 100 ng/ml
  inhibition of PMA-stimulated adherence of U937 cells to LN: inhibited
[2]; no pretreatment
  effect on stimulated adherence when added at the time of the adhesion assay instead of pretreating: without effect
ERK1; Jurkat cells, lovastatin 2.5 days, concentrations up to 40 μM, PMA 100 ng/ml 30 min
  PMA-stimulated MAPK (ERK1) phosphorylation: does not inhibit
RhoA; 14 μM lovastatin
  isoprenylation state of RhoA: Most RhoA was in non-isoprenylated form
RhoA; Jurkat cells, 2.5 days
  concentration at which geranylgeranylation of RhoA was significantly inhibited: ≥ 0.5 µM
[3]; i.n. lovastatin 0.7 μg/g with i.n. LPS, 24 hours
  percent of PMNs in lavage fluid compared with the control group: 74%
[3]; i.n. lovastatin 0.7 μg/g with i.n. LPS, 48 hours
  percent of PMNs in lavage fluid compared with the control group: 75%
[3]; i.n. lovastatin 1.4 μg/g with i.n. LPS, 24 hours
  percent of PMNs in lavage fluid compared with the control group: 28%
[3]; i.n. lovastatin 1.4 μg/g with i.n. LPS, 48 hours
  percent of PMNs in lavage fluid compared with the control group: 32%
[3]; i.n. lovastatin 7.0 μg/g with i.n. LPS, 24 hours
  percent of PMNs in lavage fluid compared with the control group: 4%
[3]; i.n. lovastatin 7.0 μg/g with i.n. LPS, 48 hours
  percent of PMNs in lavage fluid compared with the control group: 5%
[3]; i.n. lovastatin with i.n. LPS, 24 hours
  total number of lavage mononuclear leukocytes: no effect
[3]; i.n. lovastatin with i.n. LPS, 48 hours, differences not statistically significant
  number of mononuclear leukocytes in lavage fluid: somewhat less
[3]; i.p. lovastatin 7.0 μg/g daily x3, i.n. LPS, 24 hours, p<0.05
  number of PMNs accumulating, percent of control group: 30%
[3]; i.p. lovastatin 7.0 μg/g, i.n. LPS, 24 hours
  number of mononuclear leukocytes in lavage fluid: not different between groups
[4]
  inhibition of PMN emigration: ~100%
  mononuclear cell number, control vs lovastatin treatment: no difference
KC; i.n. lovastatin, 24 hours after LPS, 7.0 μg/g group significantly different from control
  concentration of KC chemokine in the lavage fluid: reduced
KC; i.n. lovastatin, 48 hours after LPS, four groups
  KC concentration in the lavage fluid: not different
KC; i.p. lovastatin pretreatment, 24 hours after i.n. LPS
  KC concentration in the lavage fluid: significant reduction
TNFα; i.n. lovastatin, 24 hours, all doses significant vs control
  TNF concentration in lavage fluid: reduced in a dose-dependent manner
TNFα; i.n. lovastatin, 48 hours
  TNF concentration in lavage fluid, differences from control: not significant
TNFα; i.p. lovastatin, 24 hours after i.n. LPS, statistically significant
  TNF production: effective in preventing TNF production
[5]
  leg diameter after ischemia and reperfusion, vehicle vs lovastatin: significantly larger diameter than the lovastatin treated leg
